Results as given in patent US20100261711A1, “SELECTIVE ANTICONVULSANT AGENTS AND THEIR USES” (WiSys Technology Foundation, priority 2009, published 2010).
Read-outs that look alike come from different tables or passages of the source.

Experiments:
[1] = target: T1, GABAA/α5 (α5β3γ2 GABAA receptors) (Homo sapiens, UniProt P18507+P31644); test: Competitive binding assay, [3H]flunitrazepam; settings: Binding Affinity at GABAA/α5, αxβ3γ2, [3H]flunitrazepam competition
T1 construct: expressed in transfected cells
Protocol: (§1) The GABAA subunit selectivity of several compounds prepared as described above were determined using competitive binding assays. […] Membranes were harvested with a Brandel cell harvester followed by three ice-cold washes onto polyethyleneimine-pretreated (0.3%) Whatman GF/C filters. Filters were dried overnight and then soaked in Ecoscint, a liquid scintillation cocktail (National Diagnostics; Atlanta, Ga.). Bound radioactivity was quantified by liquid scintillation counting. Membrane protein concentrations were determined using an assay kit from Bio-Rad (Hercules, Calif.) with bovine serum albumin as the standard.

[2] = target: T2, GABAA/α2 (α2β3γ2 GABAA receptors) (Homo sapiens, UniProt P18507+P47869); test: Competitive binding assay, [3H]flunitrazepam; settings: Binding Affinity at GABAA/α2, αxβ3γ2, [3H]flunitrazepam competition
T2 construct: expressed in transfected cells
Protocol: as §1

[3] = target: T3, GABAA/α3 (α3β3γ2 GABAA receptors) (Homo sapiens, UniProt P18507+P34903); test: Competitive binding assay, [3H]flunitrazepam; settings: Binding Affinity at GABAA/α3, αxβ3γ2, [3H]flunitrazepam competition
T3 construct: expressed in transfected cells
Protocol: as §1

[4] = target: T4, GABAA/α1 (α1β3γ2 GABAA receptors) (Homo sapiens, UniProt P14867+P18507); test: Competitive binding assay, [3H]flunitrazepam; settings: Binding Affinity at GABAA/α1, αxβ3γ2, [3H]flunitrazepam competition
T4 construct: expressed in transfected cells
Protocol: as §1

[5] = target: T5, GABAA/α6 (α6β3γ2 GABAA receptors) (Homo sapiens, UniProt P18507+Q16445); test: Competitive binding assay, [3H]flunitrazepam
T5 construct: expressed in transfected cells
Protocol: as §1

[6] = target: T6, GABAA/α4 (α4β3γ2 GABAA receptors) (Homo sapiens, UniProt P18507+P48169); test: Competitive binding assay, [3H]flunitrazepam
T6 construct: expressed in transfected cells
Protocol: as §1

[7] = test system: Metrazol-induced clonic seizures; settings: Mice IP; from Antiepileptic Drugs, 5th ed., Levy et al., 2002; cited from earlier work
6 Hz psychomotor seizure = test: Minimal clonic seizure (6 Hz) test; format: in vivo; settings: Mice IP; for ED50: Mus musculus, ip
From the text: Like the maximal electroshock (MES) test, the minimal clonic seizure (6 Hz) test is used to assess a compound's efficacy against electrically-induced seizures but uses a lower frequency (6 Hz) and longer duration of stimulation (3 s). Test compounds are pre-administered to mice via ip injection. […] Untreated mice will display seizures characterized by a minimal clonic phase followed by stereotyped, automatistic behaviors described originally as being similar to the aura of human subjects with partial seizures. Animals not displaying this behavior are considered protected (Table 10).

MES-induced seizures [8] = settings: Rat PO; from Antiepileptic Drugs, 5th ed., Levy et al., 2002; cited from earlier work
[9] = Toxicity (TOX), rotorod procedure, mice; format: in vivo; settings: mouse, in vivo; IP route in mice (footnote of Table 10); read-out: TD50
Protocol: (§2) The benzodiazepine derivative compounds selective for GABAa receptor subunits were tested for the ability to suppress seizures in several standard rat and mouse models of epilepsy. […] The standard models incorporated into anticonvulsant screening include the maximal electroshock test (MES), the subcutaneous Metrazol test (scMet), and evaluations of toxicity (TOX). The data for each condition is presented as a ratio of either the number of animals protected or toxic (loss of locomotor activity) over the number of animals tested at a given time point and dose.
(§3) To assess a compound's undesirable side effects (toxicity), animals are monitored for overt signs of impaired neurological or muscular function. […] When a mouse is placed on a rod that rotates at a speed of 6 rpm, the animal can maintain its equilibrium for long periods of time. The animal is considered toxic if it falls off this rotating rod three times during a 1-min period. In rats, minimal motor deficit is indicated by ataxia, which is manifested by an abnormal, uncoordinated gait. Rats used for evaluating toxicity are examined before the test drug is administered, since individual animals may have peculiarities in gait, equilibrium, placing response, etc., which might be attributed erroneously to the test substance.

[10] = test system: Metrazol-induced clonic seizures; settings: Rat PO; from Antiepileptic Drugs, 5th ed., Levy et al., 2002; cited from earlier work
MES-induced seizures [11] = settings: Mice IP; from Antiepileptic Drugs, 5th ed., Levy et al., 2002; cited from earlier work
[12] = test system: Metrazol-induced clonic seizures; test: Subcutaneous Metrazol test (scMet), mice; format: in vivo; settings: Mice IP
Protocol: as §2
(§4) Subcutaneous injection of the convulsant Metrazol produces clonic seizures in laboratory animals. […] Animals are pretreated with various doses of the test compound (in a similar manner to the MES test, although a dose of 50 mg/kg (po) is the standard for Test 2 scMet). At the previously determined TPE of the test compound, the dose of Metrazol which will induce convulsions in 97% of animals (CD97: 85 mg/kg mice) is injected into a loose fold of skin in the midline of the neck. […] An episode of clonic spasms, approximately 3-5 seconds, of the fore and/or hindlimbs, jaws, or vibrissae is taken as the endpoint.

[13] = test system: minimal motor deficit (ataxia, abnormal gait); test: Toxicity (TOX), minimal motor deficit, rats; format: in vivo; settings: Rat PO, 50 mg/kg
Protocol: as §2, §3

[14] = test system: minimal muscular or neurological impairment; test: Toxicity (TOX), rotorod procedure, mice; format: in vivo; settings: Mice IP
Protocol: as §2, §3

[15] = test system: Metrazol-induced clonic seizures; test: Subcutaneous Metrazol test (scMet), rats; format: in vivo; settings: Rat PO, 50 mg/kg
Protocol: as §2, §4

MES-induced seizures [16] = test: Maximal electroshock test (MES), mice; format: in vivo; settings: Mice IP
Protocol: as §2
The MES is a model for generalized tonic-clonic seizures and provides an indication of a compound's ability to prevent seizure spread when all neuronal circuits in the brain are maximally active. These seizures are highly reproducible and are electrophysiologically consistent with human seizures. For all tests based on MES convulsions, 60 Hz of alternating current (50 mA in mice, 150 in rats) is delivered for by corneal electrodes which have been primed with an electrolyte solution containing an anesthetic agent (0.5% tetracaine HCL). For Test 1, mice are tested at various intervals following doses of 30, 100 and 300 mg/kg of test compound given by ip injection of a volume of 0.01 mL/g. In Test 2, rats are tested after a dose of 30 mg/kg (po) in a volume of 0.04 mL/g. Test 8 uses varying doses administered via i.p. injection, again in a volume of 0.04 ml/g. […] In Antiepileptic Drugs, Levy, R. H. M., Meldrum, B. S., Eds.; Raven Press: New York, pp 99-110, 1995b.).

C#Cc1ccc2c(c1)C(c1ccccc1)=NC(C)c1c(C(=O)OCC)ncn1-2 (single isomer, unassigned) [SH-053-R-CH3, 8-Ethynyl-4-methyl-6-phenyl-4H-2,5,10b-triaza-benzo[e]azulene-3-carboxylic acid ethyl ester]
Ki [1]: 0.949 µM
Ki [2]: 2.38 µM
Ki [3]: 1.18 µM
Ki [4]: 2.03 µM
Ki ([5]; read-out: Binding Affinity at GABAA/α6, αxβ3γ2, [3H]flunitrazepam competition): > 5 µM
Ki ([6]; read-out: Binding Affinity at GABAA/α4, αxβ3γ2, [3H]flunitrazepam competition): > 5 µM

C#Cc1ccc2c(c1)C(c1ccccc1)=NC(C)c1c(C(=O)OCC)ncn1-2 (single isomer, unassigned) [SH-053-S-CH3, 8-Ethynyl-4-methyl-6-phenyl-4H-2,5,10b-triaza-benzo[e]azulene-3-carboxylic acid ethyl ester]
Ki [1]: 0.206 µM
Ki [2]: 1.26 µM
Ki [3]: 1.25 µM
Ki [4]: 1.67 µM
Ki [5]: > 5 µM
Ki [6]: > 5 µM

NC(=O)N1c2ccccc2C=Cc2ccccc21 [Carbamazepine]
ED50 scMet [7]: >50 mg/kg
ED50 (6 Hz psychomotor seizure; 32 mA, read-out: ED50 32 mA (6 Hz test)): > 40 mg/kg
ED50 MES (MES-induced seizures [8]): 5.35 mg/kg
TD50 [9]: 41 mg/kg
ED50 scMet [10]: >250 mg/kg
ED50 MES (MES-induced seizures [11]): 7.81 mg/kg

C#Cc1ccc2c(c1)C(c1ccccc1F)=NC(C)c1c(C(=O)OCC)ncn1-2 (single isomer, unassigned) [SH-053-2′F-S-CH3, 8-Ethynyl-6-(2-fluorophenyl)-4-methyl-4H-2,5,10b-triazabenzo[e]azulene-3-carboxylic acid ethyl ester]
6 Hz Time to Peak Effect, protected/tested (6 Hz psychomotor seizure; 30 mg/kg, 22 mA, 1.0 Hr): 6/8
6 Hz Time to Peak Effect, protected/tested (6 Hz psychomotor seizure; 30 mg/kg, 22 mA, 2.0 Hr): 2/8
6 Hz Time to Peak Effect, protected/tested (6 Hz psychomotor seizure; 50 mg/kg, 22 mA, 0.5 Hr): 1/4
6 Hz Time to Peak Effect, protected/tested (6 Hz psychomotor seizure; 50 mg/kg, 22 mA, 1.0 Hr): 3/4
6 Hz Time to Peak Effect, protected/tested (6 Hz psychomotor seizure; 50 mg/kg, 22 mA, 2.0 Hr): 3/4
6 Hz Time to Peak Effect, protected/tested (6 Hz psychomotor seizure; 100 mg/kg, 22 mA, 0.25 Hr): 2/4
6 Hz Time to Peak Effect, protected/tested (6 Hz psychomotor seizure; 100 mg/kg, 22 mA, 0.5 Hr): 4/4
6 Hz Time to Peak Effect, protected/tested (6 Hz psychomotor seizure; 100 mg/kg, 22 mA, 1.0 Hr): 4/4
6 Hz Time to Peak Effect, protected/tested (6 Hz psychomotor seizure; 100 mg/kg, 22 mA, 2.0 Hr): 4/4
6 Hz Time to Peak Effect, protected/tested (6 Hz psychomotor seizure; 100 mg/kg, 22 mA, 4.0 Hr): 2/4
6 Hz Time to Peak Effect, protected/tested (6 Hz psychomotor seizure; 100 mg/kg, 32 mA, 0.25 Hr): 2/4
6 Hz Time to Peak Effect, protected/tested (6 Hz psychomotor seizure; 100 mg/kg, 32 mA, 0.5 Hr): 1/4
6 Hz Time to Peak Effect, protected/tested (6 Hz psychomotor seizure; 100 mg/kg, 32 mA, 1.0 Hr): 4/4
6 Hz Time to Peak Effect, protected/tested (6 Hz psychomotor seizure; 100 mg/kg, 32 mA, 2.0 Hr): 2/4
6 Hz Time to Peak Effect, protected/tested (6 Hz psychomotor seizure; 100 mg/kg, 32 mA, 4.0 Hr): 2/4
ED50 (6 Hz psychomotor seizure; 1 h, 22 mA, 1 Hr, read-out: ED50 (6 Hz)): 14.2 mg/kg
ED50 (6 Hz psychomotor seizure; 1 h, 32 mA, 1 Hr, read-out: ED50 (6 Hz)): 71.2 mg/kg
scMet, animals protected/tested ([12]; 30 mg/kg, 0.5 Hr): 0/1
scMet, animals protected/tested ([12]; 30 mg/kg, 4.0 Hr): 0/1
scMet, animals protected/tested ([12]; 100 mg/kg, 0.5 hr): 2/5
scMet, animals protected/tested ([12]; 100 mg/kg, 4.0 hr): 0/1
scMet, animals protected/tested ([12]; 300 mg/kg, 0.5 Hr): 1/1
scMet, animals protected/tested ([12]; 300 mg/kg, 4.0 Hr): 0/1
Tox, animals toxic/tested ([13]; 0.5 h): 0/4
Tox, animals toxic/tested ([13]; 1.0 h): 0/4
Tox, animals toxic/tested ([13]; 2.0 h): 0/4
Tox, animals toxic/tested ([13]; 4.0 h): 0/4
Tox, animals toxic/tested ([13]; […]): 0/4
Ki [5]: > 5 µM
Ki [6]: > 5 µM
TOX (Rotorod Test), animals toxic/tested ([14]; 30 mg/kg, 0.5 Hr): 0/4
TOX (Rotorod Test), animals toxic/tested ([14]; 30 mg/kg, 4.0 Hr): 0/2
TOX (Rotorod Test), animals toxic/tested ([14]; 100 mg/kg, 0.5 hr): 1/8
TOX (Rotorod Test), animals toxic/tested ([14]; 100 mg/kg, 4.0 hr): 0/4
TOX (Rotorod Test), animals toxic/tested ([14]; 300 mg/kg, 0.5 Hr): 2/4
TOX (Rotorod Test), animals toxic/tested ([14]; 300 mg/kg, 4.0 Hr): 0/2
scMet, animals protected/tested ([15]; 0.5 h): 0/4
scMet, animals protected/tested ([15]; 1.0 h): 0/4
scMet, animals protected/tested ([15]; 2.0 h): 1/4
scMet, animals protected/tested ([15]; 4.0 h): 0/4
scMet, animals protected/tested ([15]; […]): 1/4
MES, animals protected/tested (MES-induced seizures [16]; 30 mg/kg, 0.5 Hr): 0/1
MES, animals protected/tested (MES-induced seizures [16]; 30 mg/kg, 4.0 Hr): 0/1
MES, animals protected/tested (MES-induced seizures [16]; 100 mg/kg, 0.5 hr): 0/3
MES, animals protected/tested (MES-induced seizures [16]; 100 mg/kg, 4.0 hr): 0/3
MES, animals protected/tested (MES-induced seizures [16]; 300 mg/kg, 0.5 Hr): 0/1
MES, animals protected/tested (MES-induced seizures [16]; 300 mg/kg, 4.0 Hr): 0/1
